Measurements taken from PubChem BioAssay AID1963972 (Molecular Pharmacology Branch, DTP, NCI, 2024).

System: 945468-187-T-J2-PDC spheroids viability
Test: Anticancer human tumor 945468-187-T-J2-PDC patient-derived rectal carcinoma cell line growth inhibition [PI3K]
Conditions: spheroids with HUVEC and MSC; for IC50: curve of first compound; for viability, T/C: stronger effect = lower value
In short: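 Spheroid viability read-out. Co-cultures contained the tumor line plus HUVEC and human MSCs. Each agent was paired with a PI3K inhibitor (inavolisib, alpelisib, duvelisib, copanlisib) across half-log dilutions starting at clinical Cmax, or at 10 microM when Cmax was unknown.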

[1] = second compound 0.0316 µM, first compound 0.0316 µM
[2] = second compound 0.0316 µM, first compound 0.1 µM
[3] = second compound 0.0316 µM, first compound 0.316 µM
[4] = second compound 0.0316 µM, first compound 1 µM
[5] = second compound 0.0316 µM, first compound 3.16 µM
[6] = second compound 0.0316 µM, first compound 10 µM
[7] = second compound 0.1 µM, first compound 0.0316 µM
[8] = second compound 0.1 µM, first compound 0.1 µM
[9] = second compound 0.1 µM, first compound 0.316 µM
[10] = second compound 0.1 µM, first compound 1 µM
[11] = second compound 0.1 µM, first compound 3.16 µM
[12] = second compound 0.1 µM, first compound 10 µM
[13] = second compound 0.316 µM, first compound 0.0316 µM
[14] = second compound 0.316 µM, first compound 0.1 µM
[15] = second compound 0.316 µM, first compound 0.316 µM
[16] = second compound 0.316 µM, first compound 1 µM
[17] = second compound 0.316 µM, first compound 3.16 µM
[18] = second compound 0.316 µM, first compound 10 µM
[19] = second compound 1 µM, first compound 0.0316 µM
[20] = second compound 1 µM, first compound 0.1 µM
[21] = second compound 1 µM, first compound 0.316 µM
[22] = second compound 1 µM, first compound 1 µM
[23] = second compound 1 µM, first compound 3.16 µM
[24] = second compound 1 µM, first compound 10 µM
[25] = second compound 3.16 µM, first compound 0.0316 µM
[26] = second compound 3.16 µM, first compound 0.1 µM
[27] = second compound 3.16 µM, first compound 0.316 µM
[28] = second compound 3.16 µM, first compound 1 µM
[29] = second compound 3.16 µM, first compound 3.16 µM
[30] = second compound 3.16 µM, first compound 10 µM
[31] = second compound 10 µM, first compound 0.0316 µM
[32] = second compound 10 µM, first compound 0.1 µM
[33] = second compound 10 µM, first compound 0.316 µM
[34] = second compound 10 µM, first compound 1 µM
[35] = second compound 10 µM, first compound 3.16 µM
[36] = second compound 10 µM, first compound 10 µM
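Note: spheroids exposed to compounds for seven days before reading.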

With `C=CC(=O)N1CCN(c2nc(=O)n(-c3c(C)ccnc3C(C)C)c3nc(-c4c(O)cccc4F)c(F)cc23)C(C)C1` (stereo not drawn) + Cc1nc(NC(=O)N2CCCC2C(N)=O)sc1-c1ccnc(C(C)(C)C(F)(F)F)c1 the IC50 (second compound 0.0316 µM) was > 10 µM, the IC50 (second compound 0.1 µM) was > 10 µM and the IC50 (second compound 0.316 µM) was > 10 µM. For the same molecule, the IC50 (second compound 1 µM) was > 10 µM, the IC50 (second compound 3.16 µM) was > 10 µM and the IC50 (second compound 10 µM) was > 10 µM. It also gave a viability, T/C [1] of 102%, a viability, T/C [2] of 79.7% and a viability, T/C [3] of 96.2%. The viability, T/C [4] was 90.1%, the viability, T/C [5] was 128% and the viability, T/C [6] was 113%. For the same molecule, the viability, T/C [7] was 117%, the viability, T/C [8] was 121% and the viability, T/C [9] was 97.9%. It also gave a viability, T/C [10] of 97.5%, a viability, T/C [11] of 95% and a viability, T/C [12] of 106%. The viability, T/C [13] was 117%, the viability, T/C [14] was 156% and the viability, T/C [15] was 102%. It also gave a viability, T/C [16] of 106%, a viability, T/C [17] of 101% and a viability, T/C [18] of 96%. For the same molecule, the viability, T/C [19] was 102%, the viability, T/C [20] was 111% and the viability, T/C [21] was 100%. The viability, T/C [22] was 91.6%, the viability, T/C [23] was 95% and the viability, T/C [24] was 104%. For the same molecule, the viability, T/C [25] was 91.2%, the viability, T/C [26] was 107% and the viability, T/C [27] was 83.8%. For the same molecule, the viability, T/C [28] was 81.9%, the viability, T/C [29] was 82.8% and the viability, T/C [30] was 96.2%. It also gave a viability, T/C [31] of 70.4%, a viability, T/C [32] of 87.8% and a viability, T/C [33] of 81.7%. It also gave a viability, T/C [34] of 73.7%, a viability, T/C [35] of 87.3% and a viability, T/C [36] of 92.9%.

In the case of `CCN1CCN(Cc2ccc(Nc3ncc(F)c(-c4cc(F)c5nc(C)n(C(C)C)c5c4)n3)nc2)CC1` + Cc1nc(NC(=O)N2CCCC2C(N)=O)sc1-c1ccnc(C(C)(C)C(F)(F)F)c1, the IC50 (second compound 0.0316 µM) is reported as > 1 µM, the IC50 (second compound 0.1 µM) is reported as > 1 µM and the IC50 (second compound 0.316 µM) is reported as > 1 µM. For the same molecule, the IC50 (second compound 1 µM) was > 1 µM, the IC50 (second compound 3.16 µM) was 0.753 µM and the IC50 (second compound 10 µM) was 0.322 µM. For the same molecule, the viability, T/C (second compound 0.0316 µM, first compound 0.00316 µM) was 84.8%, the viability, T/C (second compound 0.0316 µM, first compound 0.01 µM) was 103% and the viability, T/C [1] was 123%. The viability, T/C [2] was 91.5%, the viability, T/C [3] was 107% and the viability, T/C [4] was 105%. For the same molecule, the viability, T/C (second compound 0.1 µM, first compound 0.00316 µM) was 124%, the viability, T/C (second compound 0.1 µM, first compound 0.01 µM) was 104% and the viability, T/C [7] was 131%. The viability, T/C [8] was 88.9%, the viability, T/C [9] was 103% and the viability, T/C [10] was 76.2%. It also gave a viability, T/C (second compound 0.316 µM, first compound 0.00316 µM) of 103%, a viability, T/C (second compound 0.316 µM, first compound 0.01 µM) of 91.8% and a viability, T/C [13] of 123%. For the same molecule, the viability, T/C [14] was 104%, the viability, T/C [15] was 118% and the viability, T/C [16] was 73.6%. The viability, T/C (second compound 1 µM, first compound 0.00316 µM) was 118%, the viability, T/C (second compound 1 µM, first compound 0.01 µM) was 108% and the viability, T/C [19] was 115%. For the same molecule, the viability, T/C [20] was 108%, the viability, T/C [21] was 96.8% and the viability, T/C [22] was 58.9%. For the same molecule, the viability, T/C (second compound 3.16 µM, first compound 0.00316 µM) was 119%, the viability, T/C (second compound 3.16 µM, first compound 0.01 µM) was 92.9% and the viability, T/C [25] was 111%. For the same molecule, the viability, T/C [26] was 93.5%, the viability, T/C [27] was 84.2% and the viability, T/C [28] was 38.7%. It also gave a viability, T/C (second compound 10 µM, first compound 0.00316 µM) of 81.5%, a viability, T/C (second compound 10 µM, first compound 0.01 µM) of 84.4% and a viability, T/C [31] of 94%. It also gave a viability, T/C [32] of 66.7%, a viability, T/C [33] of 52.8% and a viability, T/C [34] of 28.1%.

With `Cn1ncc(Cl)c1-c1cc(C(=O)NC(CN)Cc2cccc(F)c2)sc1Cl` (stereo not drawn) + Cc1nc(NC(=O)N2CCCC2C(N)=O)sc1-c1ccnc(C(C)(C)C(F)(F)F)c1 the IC50 (second compound 0.0316 µM) was > 10 µM, the IC50 (second compound 0.1 µM) was > 10 µM and the IC50 (second compound 0.316 µM) was > 10 µM. The IC50 (second compound 1 µM) was > 10 µM, the IC50 (second compound 3.16 µM) was > 10 µM and the IC50 (second compound 10 µM) was > 10 µM. For the same molecule, the viability, T/C [1] was 94%, the viability, T/C [2] was 123% and the viability, T/C [3] was 104%. For the same molecule, the viability, T/C [4] was 77.9%, the viability, T/C [5] was 89.8% and the viability, T/C [6] was 71.6%. The viability, T/C [7] was 116%, the viability, T/C [8] was 134% and the viability, T/C [9] was 104%. For the same molecule, the viability, T/C [10] was 101%, the viability, T/C [11] was 72.3% and the viability, T/C [12] was 65.9%. It also gave a viability, T/C [13] of 102%, a viability, T/C [14] of 104% and a viability, T/C [15] of 124%. It also gave a viability, T/C [16] of 92.1%, a viability, T/C [17] of 72.3% and a viability, T/C [18] of 70.9%. It also gave a viability, T/C [19] of 97.4%, a viability, T/C [20] of 92.7% and a viability, T/C [21] of 97.4%. For the same molecule, the viability, T/C [22] was 88.4%, the viability, T/C [23] was 77.9% and the viability, T/C [24] was 54.9%. It also gave a viability, T/C [25] of 86.7%, a viability, T/C [26] of 87.7% and a viability, T/C [27] of 88%. For the same molecule, the viability, T/C [28] was 75.1%, the viability, T/C [29] was 72.5% and the viability, T/C [30] was 60%. For the same molecule, the viability, T/C [31] was 85.9%, the viability, T/C [32] was 79.8% and the viability, T/C [33] was 92.5%. For the same molecule, the viability, T/C [34] was 89%, the viability, T/C [35] was 59.5% and the viability, T/C [36] was 56.6%.

With `Cn1nccc1Nc1nccc(-c2ccn(C(CO)c3ccc(Cl)c(F)c3)c(=O)c2)n1` (stereo not drawn) + Cc1nc(NC(=O)N2CCCC2C(N)=O)sc1-c1ccnc(C(C)(C)C(F)(F)F)c1 the IC50 (second compound 0.0316 µM) was > 10 µM, the IC50 (second compound 0.1 µM) was > 10 µM and the IC50 (second compound 0.316 µM) was > 10 µM. For the same molecule, the IC50 (second compound 1 µM) was > 10 µM, the IC50 (second compound 3.16 µM) was > 10 µM and the IC50 (second compound 10 µM) was > 10 µM. For the same molecule, the viability, T/C [1] was 107%, the viability, T/C [2] was 116% and the viability, T/C [3] was 88.5%. For the same molecule, the viability, T/C [4] was 79.3%, the viability, T/C [5] was 103% and the viability, T/C [6] was 72.8%. It also gave a viability, T/C [7] of 112%, a viability, T/C [8] of 110% and a viability, T/C [9] of 108%. It also gave a viability, T/C [10] of 105%, a viability, T/C [11] of 87.4% and a viability, T/C [12] of 82.1%. For the same molecule, the viability, T/C [13] was 129%, the viability, T/C [14] was 107% and the viability, T/C [15] was 98.1%. For the same molecule, the viability, T/C [16] was 89.2%, the viability, T/C [17] was 105% and the viability, T/C [18] was 80.7%. It also gave a viability, T/C [19] of 118%, a viability, T/C [20] of 108% and a viability, T/C [21] of 104%. The viability, T/C [22] was 119%, the viability, T/C [23] was 85.2% and the viability, T/C [24] was 74.8%. For the same molecule, the viability, T/C [25] was 85.9%, the viability, T/C [26] was 119% and the viability, T/C [27] was 85.6%. The viability, T/C [28] was 82.8%, the viability, T/C [29] was 79.7% and the viability, T/C [30] was 88.5%. It also gave a viability, T/C [31] of 76.8%, a viability, T/C [32] of 98.3% and a viability, T/C [33] of 71.1%. For the same molecule, the viability, T/C [34] was 86.9%, the viability, T/C [35] was 88% and the viability, T/C [36] was 72.4%.
